Test results from patent publication US20110296540A1, “ASSAY FOR SCREENING ANTIDEPRESSANTS” (priority 2008, published 2011).

Experiments:
C57BL/6Ntac mice = assay: Changes in coat state
[1] = system: β-arrestin 2 knock out mice; assay: Forced Swim Test in β-arrestin 2 knock out mice and littermates; assay type: in vivo; settings: relative to the control group
Procedure: The forced swim test procedure was modified relative to the traditional method, so as to enhance sensitivity for detecting the putative antidepressant activity of drugs (Porsolt et al., 1977). The modifications consist of an increase in water depth (Dulawa et al., 2004). Mice were placed into plastic buckets (19 cm diameter, 23 cm deep, filled with 23-25° C. water) and videotaped for 6 min to score immobility duration.

[2] = system: dentate gyrus of the adult mouse hippocampus; assay: BrdU labeling for proliferation and survival study, corticosterone model
Procedure: After anesthesia with ketamine (100 mg/kg), mice were perfused transcardially (cold saline for 2 min, followed by 4% cold paraformaldehyde at 4° C.). […] For DAB staining, sections were mounted on slides and boiled in citric acid (pH 6.0) for 5 min, rinsed with PBS, and treated with 0.01% trypsin in Tris/CaCl2 for 10 min. Brain sections were incubated for 30 min with 2N HCl and blocked with 5% NGS. Sections were then incubated overnight at room temperature with anti-mouse BrdU (1:100). After washing with PBS, sections were incubated for 1 hr with secondary antibody (1:200 biotinylated goat anti-mouse) followed by amplification with an avidinbiotin complex. The staining was visualized with DAB.

Structure (SMILES): CNCCC(Oc1ccc(C(F)(F)F)cc1)c1ccccc1 (stereo not shown) [fluoxetine]
- deterioration of the coat state induced by chronic corticosterone (C57BL/6Ntac mice; 3 week fluoxetine regimen): reversed
- coat state total score (sum of five body parts) (C57BL/6Ntac mice; chronic corticosterone, without or with 3 week fluoxetine, mean±SEM): 1.80±0.08
- immobility (FST) ([1]; wild-type mice): decrease in immobility
- immobility (FST) ([1]; β-arrestin 2 knockout mice): decrease in immobility
- change in cell proliferation induced by corticosterone ([2]; 3 weeks of fluoxetine 18 mg/kg/day): completely reversed
- effect of fluoxetine on survival ([2]; in the presence of corticosterone, compared with controls): even more pronounced
- hippocampal cell proliferation ([2]; non-corticosterone treated C57BL/6Ntac mice, chronic fluoxetine): did not affect
